Source: ChEMBL document CHEMBL5137107, “Optimization of hERG and Pharmacokinetic Properties for Basic Dihydro-8H-purin-8-one Inhibitors of DNA-PK” (ACS Med Chem Lett, 2022)
Values after ≈ are worked out from the molar mass of the structure shown.

Legend:
[1] = 1-Octanol/aqueous buffer partition coefficient, logD of the compound at pH 7.4 by shake flask technique based UPLC analysis; type: physicochemical
[2] = Apparent permeability of compound across apical to basal membrane in human Caco-2 by ABBA assay; type: ADME, cell-based
[3] = Acid dissociation constant, pKa of the compound; type: physicochemical
[4] = Solubility of the compound in FaSSIF at pH 6.5; type: physicochemical
[5] = Oral bioavailability in Han Wistar rat at 5 mg/kg; type: ADME, organism-based; conditions: in vivo
[6] = Volume of distribution at steady state in Han Wistar rat at 5 mg/kg, po or 2 mg/kg, iv; type: ADME, organism-based; conditions: in vivo
[7] = Oral bioavailability in Beagle dog at 2 mg/kg; type: ADME, organism-based, Canis lupus familiaris; conditions: in vivo
[8] = Volume of distribution at steady state in Beagle dog at 2 mg/kg, po or 1 mg/kg, iv; type: ADME, organism-based, Canis lupus familiaris; conditions: in vivo
[9] = Cardiotoxicity in guinea pig assessed as increase in QTc level by measuring unbound Cmax at 3 to 30 mg/kg administered as iv infusion consecutively for 15 mins; type: toxicity, organism-based, Cavia porcellus; conditions: in vivo, dose 3-30 mg/kg
[10] = Cardiotoxicity in guinea pig assessed as unbound concentration required to increase in QTc level by 10% administered as iv infusion consecutively for 15 mins; type: toxicity, organism-based, Cavia porcellus; conditions: in vivo
[11] = Solubility of the compound; type: physicochemical

Row | SMILES | logD [1] | pKa [3] | further results
1 | Cc1cc2ncccc2cc1Nc1ncc2c(n1)n(C1CCNCC1)c(=O)n2C | 0.5 |  | Papp A→B [2]: 0.7 ×10⁻⁶ cm/s
2 | Cc1cc2ncccc2cc1Nc1ncc2c(n1)n([C@@H]1CN(C)C[C@H]1F)c(=O)n2C | 2.1 | 6.5 | 
3 | Cc1cc2nnccc2cc1Nc1ncc2c(n1)n(C1CCOCC1)c(=O)n2C | 2.2 |  | 
4 | Cc1cc2ncccc2cc1Nc1ncc2c(n1)n([C@@H]1CNC[C@H]1F)c(=O)n2C | 1.6 | 7.3 | Papp A→B [2]: 9.4 ×10⁻⁶ cm/s; solubility [4]: 872 µM (≈ 343 µg/mL); bioavailability [5]: 58%; Vdss [6]: 2.1 L/kg; bioavailability [7]: 52%; Vdss [8]: 5.4 L/kg
5 | Cc1cc2ncnn2cc1Nc1ncc2c(n1)n(C1CCN(C)CC1)c(=O)n2C | 0.3 |  | 
6 | Cc1cc2ncccc2cc1Nc1ncc2c(n1)n([C@H]1CCN(C)C1)c(=O)n2C | 1.1 | 8.9 | EC10 [9]: 3.9 µM; Papp A→B [2]: 19 ×10⁻⁶ cm/s
7 | Cc1cc2ncnn2cc1Nc1ncc2c(n1)n(C1CCOCC1)c(=O)n2C [AZD-7648] | 1.3 |  | 
8 | Cc1cc2ncccc2cc1Nc1ncc2c(n1)n([C@H]1CCN(C3COC3)C1)c(=O)n2C | 1.5 |  | 
9 | Cc1cc2ncncc2cc1Nc1ncc2c(n1)n(C1CCOCC1)c(=O)n2C | 2.2 |  | 
10 | Cc1cc2ncccc2cc1Nc1ncc2c(n1)n(C1CCN(C)CC1)c(=O)n2C | 1.8 | 8.2 | EC10 [10]: 2.3 µM; Papp A→B [2]: 14 ×10⁻⁶ cm/s; solubility [11]: 178 µM (≈ 71.8 µg/mL)
11 | Cc1cc2ncccc2cc1Nc1ncc2c(n1)n(C1CCOCC1)c(=O)n2C | 2.5 |  | 
12 | Cc1cc2ncccc2cc1Nc1ncc2c(n1)n([C@H]1CCN(CCO)C1)c(=O)n2C | 0.9 | 8.2 | Papp A→B [2]: 2.6 ×10⁻⁶ cm/s
13 | Cc1cc2nccnc2cc1Nc1ncc2c(n1)n(C1CCN(C)CC1)c(=O)n2C | 1.2 |  | 
14 | Cc1cc2ncccc2cc1Nc1ncc2c(n1)n([C@@H]1CN(C)C[C@@H]1F)c(=O)n2C | 2.2 |  | 
15 | Cc1cc2nnccc2cc1Nc1ncc2c(n1)n(C1CCN(C)CC1)c(=O)n2C | 1.2 |  | 
16 | Cc1cc2ncccc2cc1Nc1ncc2c(n1)n([C@@H]1CNC[C@@H]1F)c(=O)n2C | 1.7 | 7.2 | 
17 | Cc1cc2ncccc2cc1Nc1ncc2c(n1)n([C@@H]1CCN(C)C1)c(=O)n2C | 1.2 | 8.7 | 
18 | COCCN1CC[C@H](n2c(=O)n(C)c3cnc(Nc4cc5cccnc5cc4C)nc32)C1 | 1.7 |  | 
19 | Cc1cc2nccnc2cc1Nc1ncc2c(n1)n(C1CCOCC1)c(=O)n2C | 2.2 |  | 
